Measured values reported in ChEMBL document CHEMBL3779782, “Identification of human telomerase inhibitors having the core of N-acyl-4,5-dihydropyrazole with anticancer effects” (Bioorg Med Chem Lett, 2016).

Tested on: not listed separately
Assay: Antiproliferative activity against human MGC803 cells after 48 hrs by MTT assay
Type: functional, cell-based
Conditions: MGC-803, 48 h

Q: Which EC50 does the source give for CC1=NN(S(=O)(=O)c2ccccc2I)C(c2cc(Br)ccc2O)C1 (stereo not given) here?
A: 52.5 µM

Q: For CC1=NN(C(=O)CCl)C(c2cc(F)ccc2O)C1 (stereo not given), which EC50 is on record?
A: 6.87 µM

Q: For COc1ccc(S(=O)(=O)N2N=C(C)CC2c2cc(Br)ccc2O)cc1 (stereo not given), which EC50 is on record?
A: 20.3 µM

Q: With CC1=NN(S(=O)(=O)c2ccc(F)cc2)C(c2cc(Br)ccc2O)C1 (stereo not given) as the molecule, how does the EC50 read?
A: 15.5 µM

Q: With CC1=NN(S(=O)(=O)c2ccc(Cl)cc2Cl)C(c2cc(Br)ccc2O)C1 (stereo not given) as the molecule, how does the EC50 read?
A: 37.9 µM

Q: For CC1=NN(C(=O)C(F)(F)F)C(c2ccccc2O)C1 (stereo not given), which EC50 is on record?
A: 2.89 µM

Q: Which EC50 does the source give for CC1=NN(S(=O)(=O)c2ccc(C(F)(F)F)cc2)C(c2cc(Br)ccc2O)C1 (stereo not given) here?
A: 30 µM

Q: Which EC50 does the source give for CC1=NN(C(=O)CBr)C(c2ccccc2O)C1 (stereo not given) here?
A: 3.65 µM

Q: For CC1=NN(S(=O)(=O)c2ccc(Cl)cc2)C(c2cc(Br)ccc2O)C1 (stereo not given), which EC50 is on record?
A: > 60 µM

Q: With CC1=NN(S(=O)(=O)c2ccccc2)C(c2cc(Br)ccc2O)C1 (stereo not given) as the molecule, how does the EC50 read?
A: > 60 µM

Q: For COc1ccc(C(=O)N2N=C(C)CC2c2ccccc2O)cc1 (stereo not given), which EC50 is on record?
A: 38.5 µM

Q: Which EC50 does the source give for CC1=NN(S(=O)(=O)c2ccccc2C)C(c2cc(Br)ccc2O)C1 (stereo not given) here?
A: > 60 µM

Q: For CC1=NN(C(=O)CCl)C(c2cc(Cl)ccc2O)C1 (stereo not given), which EC50 is on record?
A: 12.2 µM

Q: For CC1=NN(C(=O)c2ccc(F)cc2)C(c2ccccc2O)C1 (stereo not given), which EC50 is on record?
A: 35.4 µM

Q: For CC1=NN(C(=O)CCl)C(c2cc(Br)ccc2O)C1 (stereo not given), which EC50 is on record?
A: 10.5 µM

Q: Which EC50 does the source give for CC1=NN(C(=O)CF)C(c2ccccc2O)C1 (stereo not given) here?
A: 4.26 µM

Q: For CC1=NN(S(=O)(=O)c2ccc([N+](=O)[O-])cc2)C(c2cc(Br)ccc2O)C1 (stereo not given), which EC50 is on record?
A: 22.2 µM

Q: For O=c1[nH]cc(F)c(=O)[nH]1 [FLUOROURACIL], which EC50 is on record?
A: 3.35 µM

Molecular target: Telomerase reverse transcriptase (Homo sapiens, UniProt O14746)
Assay: Inhibition of telomerase in human MGC803 cells after 24 hrs by TRAP-PCR-ELISA method
Type: cell-based, MGC-803
Conditions: not given

Sequence of Telomerase reverse transcriptase (O14746 whole entry): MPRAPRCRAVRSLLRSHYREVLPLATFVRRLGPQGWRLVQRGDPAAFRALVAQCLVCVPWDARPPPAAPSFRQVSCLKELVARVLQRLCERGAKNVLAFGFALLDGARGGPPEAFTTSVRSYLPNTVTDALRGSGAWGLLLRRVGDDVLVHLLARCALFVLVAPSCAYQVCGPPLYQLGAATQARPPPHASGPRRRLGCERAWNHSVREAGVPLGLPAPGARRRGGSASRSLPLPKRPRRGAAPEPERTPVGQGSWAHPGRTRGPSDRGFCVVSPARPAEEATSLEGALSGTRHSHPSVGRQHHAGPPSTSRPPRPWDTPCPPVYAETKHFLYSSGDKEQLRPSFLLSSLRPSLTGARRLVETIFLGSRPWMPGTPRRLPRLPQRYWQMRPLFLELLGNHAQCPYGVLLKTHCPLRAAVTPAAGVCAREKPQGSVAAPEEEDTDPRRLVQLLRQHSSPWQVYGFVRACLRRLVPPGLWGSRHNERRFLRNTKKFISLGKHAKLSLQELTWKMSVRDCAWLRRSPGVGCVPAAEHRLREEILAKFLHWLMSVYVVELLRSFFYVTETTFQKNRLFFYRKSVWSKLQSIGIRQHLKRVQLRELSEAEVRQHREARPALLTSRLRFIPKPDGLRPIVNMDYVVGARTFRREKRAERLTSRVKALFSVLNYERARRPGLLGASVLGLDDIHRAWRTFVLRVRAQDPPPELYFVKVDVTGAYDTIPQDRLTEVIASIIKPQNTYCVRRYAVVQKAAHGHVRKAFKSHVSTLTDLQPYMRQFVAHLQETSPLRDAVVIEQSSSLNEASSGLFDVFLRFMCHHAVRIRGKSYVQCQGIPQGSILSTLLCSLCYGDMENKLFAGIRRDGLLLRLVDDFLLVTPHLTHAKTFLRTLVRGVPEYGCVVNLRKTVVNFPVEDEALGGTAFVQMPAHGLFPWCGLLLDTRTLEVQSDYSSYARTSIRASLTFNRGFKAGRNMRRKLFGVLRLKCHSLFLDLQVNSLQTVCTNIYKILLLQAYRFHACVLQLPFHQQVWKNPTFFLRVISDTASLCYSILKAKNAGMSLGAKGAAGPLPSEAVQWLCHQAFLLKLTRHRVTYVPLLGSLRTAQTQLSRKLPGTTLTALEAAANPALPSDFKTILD

Q: For CC1=NN(C(=O)C(F)(F)F)C(c2ccccc2O)C1 (stereo not given), which IC50 is on record?
A: 1.86 µM

Q: Which IC50 does the source give for CC1=NN(S(=O)(=O)c2ccc(C(F)(F)F)cc2)C(c2cc(Br)ccc2O)C1 (stereo not given) here?
A: > 60 µM

Q: For COc1ccc(C(=O)N2N=C(C)CC2c2ccccc2O)cc1 (stereo not given), which IC50 is on record?
A: 25 µM

Q: With CC1=NN(C(=O)c2ccc(F)cc2)C(c2ccccc2O)C1 (stereo not given) as the molecule, how does the IC50 read?
A: 29.8 µM

Q: For CC1=NN(C(=O)CF)C(c2ccccc2O)C1 (stereo not given), which IC50 is on record?
A: 4 µM

Q: Which IC50 does the source give for CC[n+]1c(-c2ccccc2)c2cc(N)ccc2c2ccc(N)cc21 [HOMIDIUM BROMIDE] here?
A: 2.18 µM

Tested on: HepG2
Assay: Antiproliferative activity against human HepG2 cells after 48 hrs by MTT assay
Type: functional, cell-based
Conditions: HepG2, 48 h

Q: For CC1=NN(S(=O)(=O)c2ccccc2I)C(c2cc(Br)ccc2O)C1 (stereo not given), which EC50 is on record?
A: > 60 µM

Q: With CC1=NN(C(=O)CCl)C(c2cc(F)ccc2O)C1 (stereo not given) as the molecule, how does the EC50 read?
A: 4.21 µM

Q: Which EC50 does the source give for COc1ccc(S(=O)(=O)N2N=C(C)CC2c2cc(Br)ccc2O)cc1 (stereo not given) here?
A: 38.2 µM

Q: With CC1=NN(S(=O)(=O)c2ccc(F)cc2)C(c2cc(Br)ccc2O)C1 (stereo not given) as the molecule, how does the EC50 read?
A: 50.1 µM

Q: Which EC50 does the source give for CC1=NN(S(=O)(=O)c2ccc(Cl)cc2Cl)C(c2cc(Br)ccc2O)C1 (stereo not given) here?
A: 45.2 µM

Q: With CC1=NN(C(=O)C(F)(F)F)C(c2ccccc2O)C1 (stereo not given) as the molecule, how does the EC50 read?
A: 4.8 µM

Q: For CC1=NN(S(=O)(=O)c2ccc(C(F)(F)F)cc2)C(c2cc(Br)ccc2O)C1 (stereo not given), which EC50 is on record?
A: 22.1 µM

Q: For CC1=NN(C(=O)CBr)C(c2ccccc2O)C1 (stereo not given), which EC50 is on record?
A: 14.4 µM

Q: Which EC50 does the source give for CC1=NN(S(=O)(=O)c2ccc(Cl)cc2)C(c2cc(Br)ccc2O)C1 (stereo not given) here?
A: > 60 µM

Q: With CC1=NN(S(=O)(=O)c2ccccc2)C(c2cc(Br)ccc2O)C1 (stereo not given) as the molecule, how does the EC50 read?
A: > 60 µM

Q: With COc1ccc(C(=O)N2N=C(C)CC2c2ccccc2O)cc1 (stereo not given) as the molecule, how does the EC50 read?
A: 40.3 µM

Q: Which EC50 does the source give for CC1=NN(S(=O)(=O)c2ccccc2C)C(c2cc(Br)ccc2O)C1 (stereo not given) here?
A: 39.3 µM

Q: With CC1=NN(C(=O)CCl)C(c2cc(Cl)ccc2O)C1 (stereo not given) as the molecule, how does the EC50 read?
A: 20.3 µM

Q: Which EC50 does the source give for CC1=NN(C(=O)c2ccc(F)cc2)C(c2ccccc2O)C1 (stereo not given) here?
A: 39.2 µM

Q: With CC1=NN(C(=O)CCl)C(c2cc(Br)ccc2O)C1 (stereo not given) as the molecule, how does the EC50 read?
A: 12.3 µM

Q: For CC1=NN(C(=O)CF)C(c2ccccc2O)C1 (stereo not given), which EC50 is on record?
A: 9.41 µM

Q: With CC1=NN(S(=O)(=O)c2ccc([N+](=O)[O-])cc2)C(c2cc(Br)ccc2O)C1 (stereo not given) as the molecule, how does the EC50 read?
A: > 60 µM

Q: With O=c1[nH]cc(F)c(=O)[nH]1 [FLUOROURACIL] as the molecule, how does the EC50 read?
A: 2.21 µM

Tested on: not listed separately
Assay: Antiproliferative activity against human SGC7901 cells after 48 hrs by MTT assay
Type: functional, cell-based
Conditions: SGC-7901, 48 h

Q: For CC1=NN(S(=O)(=O)c2ccccc2I)C(c2cc(Br)ccc2O)C1 (stereo not given), which EC50 is on record?
A: > 60 µM

Q: With CC1=NN(C(=O)CCl)C(c2cc(F)ccc2O)C1 (stereo not given) as the molecule, how does the EC50 read?
A: 7 µM

Q: For COc1ccc(S(=O)(=O)N2N=C(C)CC2c2cc(Br)ccc2O)cc1 (stereo not given), which EC50 is on record?
A: 21.1 µM

Q: For CC1=NN(S(=O)(=O)c2ccc(F)cc2)C(c2cc(Br)ccc2O)C1 (stereo not given), which EC50 is on record?
A: > 60 µM

Q: With CC1=NN(S(=O)(=O)c2ccc(Cl)cc2Cl)C(c2cc(Br)ccc2O)C1 (stereo not given) as the molecule, how does the EC50 read?
A: > 60 µM

Q: With CC1=NN(C(=O)C(F)(F)F)C(c2ccccc2O)C1 (stereo not given) as the molecule, how does the EC50 read?
A: 2.06 µM

Q: With CC1=NN(S(=O)(=O)c2ccc(C(F)(F)F)cc2)C(c2cc(Br)ccc2O)C1 (stereo not given) as the molecule, how does the EC50 read?
A: 16.3 µM

Q: Which EC50 does the source give for CC1=NN(C(=O)CBr)C(c2ccccc2O)C1 (stereo not given) here?
A: 4.18 µM

Q: For CC1=NN(S(=O)(=O)c2ccc(Cl)cc2)C(c2cc(Br)ccc2O)C1 (stereo not given), which EC50 is on record?
A: > 60 µM

Q: Which EC50 does the source give for CC1=NN(S(=O)(=O)c2ccccc2)C(c2cc(Br)ccc2O)C1 (stereo not given) here?
A: 55.6 µM

Q: With COc1ccc(C(=O)N2N=C(C)CC2c2ccccc2O)cc1 (stereo not given) as the molecule, how does the EC50 read?
A: 45.7 µM

Q: With CC1=NN(S(=O)(=O)c2ccccc2C)C(c2cc(Br)ccc2O)C1 (stereo not given) as the molecule, how does the EC50 read?
A: 48.1 µM

Q: For CC1=NN(C(=O)CCl)C(c2cc(Cl)ccc2O)C1 (stereo not given), which EC50 is on record?
A: 14 µM

Q: For CC1=NN(C(=O)c2ccc(F)cc2)C(c2ccccc2O)C1 (stereo not given), which EC50 is on record?
A: 50.3 µM

Q: With CC1=NN(C(=O)CCl)C(c2cc(Br)ccc2O)C1 (stereo not given) as the molecule, how does the EC50 read?
A: 9.21 µM

Q: With CC1=NN(C(=O)CF)C(c2ccccc2O)C1 (stereo not given) as the molecule, how does the EC50 read?
A: 8.6 µM

Q: Which EC50 does the source give for CC1=NN(S(=O)(=O)c2ccc([N+](=O)[O-])cc2)C(c2cc(Br)ccc2O)C1 (stereo not given) here?
A: 27.3 µM

Q: For O=c1[nH]cc(F)c(=O)[nH]1 [FLUOROURACIL], which EC50 is on record?
A: 7.03 µM
